Laboratory results published in PubChem BioAssay (NCI).
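These data come from cells grown in 96-well plates and exposed to compound for 48 hours at five concentrations. TGI marks complete inhibition of growth.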

Assays:
Assay in all cases: NCI-60 cell line screen, 48 h
NCI-H23 lung = tested on: NCI-H23 lung
OVCAR-5 ovarian = tested on: OVCAR-5 ovarian
MOLT-4 leukemia = tested on: MOLT-4 leukemia
IGROV1 ovarian = tested on: IGROV1 ovarian
NCI/ADR-RES ovarian = tested on: NCI/ADR-RES ovarian
RXF 393 renal = tested on: RXF 393 renal
KM12 colon = tested on: KM12 colon
MCF7 breast = tested on: MCF7 breast
SF-539 CNS = tested on: SF-539 CNS
M14 melanoma = tested on: M14 melanoma
NCI-H522 lung = tested on: NCI-H522 lung
MDA-MB-231 breast = tested on: MDA-MB-231 breast

Row | SMILES | TGI (NCI-H23 lung) [µM] | TGI (OVCAR-5 ovarian) [µM] | TGI (MOLT-4 leukemia) [µM] | TGI (IGROV1 ovarian) [µM] | TGI (NCI/ADR-RES ovarian) [µM] | TGI (RXF 393 renal) [µM] | TGI (KM12 colon) [µM] | TGI (MCF7 breast) [µM] | TGI (SF-539 CNS) [µM] | TGI (M14 melanoma) [µM] | TGI (NCI-H522 lung) [µM] | TGI (MDA-MB-231 breast) [µM]
1 | COc1cc(C2c3cccc4cccc(c34)C3CCC(=O)N32)cc(O)c1O (configuration not stated) | > 50 | > 50 | 41.6 | > 50 | > 50 | > 50 | > 50 | > 50 | > 50 | > 50 | – | –
2 | CCOc1ccc(NCC(=O)N2CC(=O)Nc3ccccc32)cc1 | > 100 | > 100 | > 100 | – | – | > 100 | > 100 | – | > 100 | > 100 | > 100 | –
3 | C1=CCN(c2ccccc2)CC1 | > 100 | > 100 | > 100 | 96.3 | – | 35.7 | > 100 | – | > 100 | 44.8 | 30.4 | –
4 | Nc1ccc(N=Nc2ccc(/C=C/c3ccc(N=Nc4ccc(N)c5ccc(S(=O)(=O)O)cc45)cc3S(=O)(=O)O)c(S(=O)(=O)O)c2)c2cc(S(=O)(=O)O)ccc12 | > 100 | > 100 | > 100 | > 100 | > 100 | > 100 | > 100 | > 100 | > 100 | – | > 100 | –
5 | COc1ccc2c(OC)c3ccoc3nc2c1O | > 100 | > 100 | > 100 | > 100 | – | – | > 100 | – | > 100 | > 100 | > 100 | –
6 | O=C(CCN(CCO)CCO)Nc1ccc2c(c1)C(=O)c1ccc(NC(=O)CCN(CCO)CCO)cc1C2=O | > 100 | > 100 | 44.9 | 50.7 | – | 79.4 | 31.2 | – | 22.3 | 38.3 | 19.7 | –
7 | CCCOC(=O)c1cc(C(=CCC[C@H]2CC[C@@]3(C)[C@@H](CC[C@@H]4[C@@H]3CC[C@]3(C)[C@@H](C(C)CCCC(C)C)CC[C@@H]43)C2)c2cc(Cl)c(O)c(C(=O)OCCC)c2)cc(Cl)c1O (some centres not stated) | > 50 | – | > 50 | > 50 | > 50 | – | > 50 | – | – | – | – | > 50
8 | N[C@@H]1C[C@H](N)c2c(Cl)sc(Cl)c21 | > 100 | > 100 | > 100 | > 100 | > 100 | > 100 | > 100 | > 100 | > 100 | > 100 | – | > 100
9 | Cc1ccc(S(=O)(=O)N(c2ccccc2F)C2CCCCC2O)cc1 (configuration not stated) | > 100 | > 100 | – | – | > 100 | – | > 100 | 48.5 | > 100 | > 100 | – | > 100
10 | O=C(O)CCC(=O)Nc1ccc2c(c1)S(=O)(=O)N(CC(=O)O)C2=O | > 100 | > 100 | > 100 | > 100 | > 100 | – | > 100 | > 100 | > 100 | > 100 | > 100 | > 100
11 | CC(=O)OCC(OC(C)=O)C(OC(C)=O)C(/C=N/N(C(C)=O)S(=O)(=O)c1ccc(/C=C2\NC(=O)NC2=O)cc1)OC(C)=O (configuration not stated) | > 100 | > 100 | > 100 | > 100 | > 100 | > 100 | – | > 100 | > 100 | > 100 | – | > 100
12 | COc1ccccc1NC(=O)C(C#N)=C(SC)SC | > 100 | > 100 | > 100 | > 100 | – | > 100 | > 100 | > 100 | > 100 | > 100 | > 100 | > 100
13 | CN(C(=O)C1=CCCCCC1)c1ccccc1I | > 100 | > 100 | > 100 | > 100 | 68.7 | > 100 | 93.9 | > 100 | – | > 100 | – | > 100
14 | Cn1c(=O)nc2n(CCO)c(-c3ccccc3)c(-c3ccccc3)nc-2c1=O | > 100 | > 100 | > 100 | > 100 | > 100 | > 100 | > 100 | – | > 100 | > 100 | > 100 | > 100
15 | CCCCOC(=O)/C(CC(=O)C=C(C)C)=N\NS(=O)(=O)c1ccc(C)cc1 | > 100 | > 100 | > 100 | > 100 | – | > 100 | > 100 | – | > 100 | > 100 | > 100 | –
16 | CC(=O)Nc1ccc(-c2nnc(SCC(=O)Nc3ccccc3Cl)o2)cc1 | > 100 | > 100 | > 100 | > 100 | – | > 100 | > 100 | – | > 100 | > 100 | > 100 | –
17 | CC(=O)OC1[C@H]2c3cc4c(cc3CN3CCC(C[C@@H]1OC(C)=O)C23)OCO4 (some centres not stated) | > 75 | – | > 75 | > 75 | – | > 75 | > 75 | – | > 75 | > 75 | > 75 | –
18 | CC(C#N)Nc1ccc(Oc2ccc(C(C)(C)c3ccc(Oc4ccc(NC(C)C#N)cc4)cc3)cc2)cc1 (configuration not stated) | > 100 | > 100 | > 100 | > 100 | > 100 | > 100 | > 100 | > 100 | > 100 | > 100 | – | > 100
19 | Oc1ccccc1C=Nc1ccc(Oc2ccc(Cl)cc2)c(Cl)c1 | 45.4 | 79.5 | > 100 | > 100 | 47.5 | – | 65.1 | > 100 | 58.7 | 46 | 31.6 | 40.4
20 | CCOC(=O)[C@H]1C[C@@H](C(=O)c2ccccc2)N2N=C(c3ccc(Br)cc3)C=C[C@H]12 | > 100 | > 100 | > 100 | – | > 100 | > 100 | > 100 | > 100 | – | > 100 | – | > 100
21 | C1CSCC2(COC2)CS1 | > 100 | – | > 100 | – | > 100 | > 100 | > 100 | > 100 | – | – | > 100 | –
22 | CCN(CC)CCCCC1CCN(CC(=O)N2c3ccccc3NC(=O)c3ccccc32)CC1 | > 100 | – | > 100 | – | – | – | > 100 | – | > 100 | 39.7 | > 100 | –
